These results are taken from patent US9540343B2 (Gilead Sciences, Inc., priority 2011, dated 2017).

For data set [1], the system named is HIV-IIIb. Description: Test A: Antiviral assay in MT4 cells. The class given is cell-based, HIV-1. The following applies: MT-4 cells infected with HIV-IIIb, 5 days, CellTiter-Glo; for inhibition at 2 µM: Human immunodeficiency virus 1, IIIB, MT4, 120 h, read-out: % inhibition at 2 μM, percent inhibition of virus-induced cell killing, from dose response curve at 2 uM drug.

Data set [2] is described as follows: in vitro. The method in brief: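 Cytoprotection read-out: CellTiter-Glo chemiluminescence after 5 days at 37 °C of HIV-IIIb-infected MT-4 cells (m.o.i. 0.003) with compound in 10-point 3-fold dilutions, quadruplicate, 10% FBS. Cytotoxicity (CC50) measured identically without virus.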
The mark [3] stands for this setting: human, uninfected MT-4 cells, CC50 (nM), same protocol as Test A, CellTiter-Glo.

The term inhibition denotes the percentage by which the read-out fell short of the control. As a reminder, the CC50 is the concentration giving 50% cytotoxicity. Higher therefore signals lower toxicity to the cells. Regarding `Cn1cc(-c2cccnc2[C@H](Cc2cc(F)cc(F)c2)NC(=O)Cc2c[nH]c3ccc(F)cc23)cn1` [Example 440, (S)—N-(2-(3,5-difluorophenyl)-1-(3-(1-methyl-1H-pyrazol-4-yl)pyridin-2-yl)ethyl)-2-(5-fluoro-1H-indol-3-yl)acetamide], the inhibition at 2 µM in data set [1] was 82%. Further, in data set [2] (setting [3]), the midpoint of cytotoxicity, the CC50 at 5 days, lay at 21700 nM.

For the molecule `NC(=O)c1cc(-c2cccnc2[C@H](Cc2cc(F)cc(F)c2)NC(=O)Cn2cnc3cc(Cl)c(Cl)cc32)ccc1F` [Example 518, (S)-5-(2-(1-(2-(5,6-dichloro-1H-benzo[d]imidazol-1-yl)acetamido)-2-(3,5-difluorophenyl)ethyl)pyridin-3-yl)-2-fluorobenzamide], the inhibition at 2 µM in data set [1] worked out at 11%. The midpoint of cytotoxicity in data set [2] (setting [3]), the CC50 at 5 days, lay at 10500 nM.

Take `COc1ccc(-c2cccnc2[C@@H](Cc2ccccc2)NC(=O)Cc2c[nH]c3ccc(O)cc23)cc1` [Example 22, (R)-2-(5-hydroxy-1H-indol-3-yl)-N-(1-(3-(4-methoxyphenyl)pyridin-2-yl)-2-phenylethyl)acetamide]: the inhibition at 2 µM in data set [1] came to 0%. The same molecule showed a CC50 at 5 days in data set [2] (setting [3]) of 45700 nM.

Regarding `Cc1ccccc1-c1cccnc1[C@H](Cc1cccc(F)c1)NC(=O)Cn1nc(C(F)(F)F)c2c1CCCC2` [Example 25, (S)—N-(2-(3-fluorophenyl)-1-(3-o-tolylpyridin-2-yl)ethyl)-2-(3-(trifluoromethyl)-4,5,6,7-tetrahydro-1H-indazol-1-yl)acetamide], in data set [1], the inhibition at 2 µM is 71%. Moreover, in data set [2] (setting [3]), it took 11900 nM to reach half-maximal cytotoxicity (CC50 at 5 days).

For `NS(=O)(=O)c1cc(-c2cccnc2[C@H](Cc2cc(F)cc(F)c2)NC(=O)Cc2c[nH]c3ccc(F)cc23)ccc1F` [Example 580F, (S)—N-(2-(3,5-difluorophenyl)-1-(3-(4-fluoro-3-sulfamoylphenyl)pyridin-2-yl)ethyl)-2-(5-fluoro-1H-indol-3-yl)acetamide], in data set [1], the inhibition at 2 µM amounted to 95%. In data set [2] (setting [3]), the CC50 at 5 days stood at 32600 nM.

On to `C=Cc1cn(CC(=O)N[C@@H](Cc2cc(F)cc(F)c2)c2ncccc2-c2ccc(F)c(C(N)=O)c2)nc1C(F)(F)F` [Example 297, (S)-5-(2-(2-(3,5-difluorophenyl)-1-(2-(3-(trifluoromethyl)-4-vinyl-1H-pyrazol-1-yl)acetamido)ethyl)pyridin-3-yl)-2-fluorobenzamide], for which the inhibition at 2 µM in data set [1] worked out at 14%. For the same molecule, the CC50 at 5 days in data set [2] (setting [3]) came to 23300 nM.

For orientation: % inhibition means the relative decrease from the control value, in per cent. In the case of `Cc1cc2ncn(C(CC(F)(F)F)C(=O)N[C@@H](Cc3cc(F)cc(F)c3)c3ncccc3-c3ccc(F)c(C(N)=O)c3)c2cc1C` (single isomer, unassigned) [Example 540E], the “% inhibition at 2 μM” value in data set [1] (percent inhibition of virus-induced cell killing, from dose response curve at 2 uM drug) is listed as −4%. Further, the CC50 at 5 days in data set [2] (setting [3]) is greater than 53200 nM.

For `CC(C)(C)OC(=O)NCc1ccc2[nH]cc(CC(=O)N[C@@H](Cc3cc(F)cc(F)c3)c3ncccc3-c3cccc(C(N)=O)c3)c2c1` [Example 529, (S)-tert-butyl (3-(2-(1-(3-(3-carbamoylphenyl)pyridin-2-yl)-2-(3,5-difluorophenyl)ethylamino)-2-oxoethyl)-1H-indol-5-yl)methylcarbamate], in data set [1], the inhibition at 2 µM amounted to 53%. Also, it took 13000 nM to reach half-maximal cytotoxicity in data set [2] (setting [3]) (CC50 at 5 days).

Consider `O=C(Cc1c[nH]c2ccc(F)cc12)N[C@@H](Cc1cc(F)cc(F)c1)c1ncccc1-c1ccc(OC(F)(F)F)cc1` [Example 431, (S)—N-(2-(3,5-difluorophenyl)-1-(3-(4-(trifluoromethoxy)phenyl)pyridin-2-yl)ethyl)-2-(5-fluoro-1H-indol-3-yl)acetamide], for which the inhibition at 2 µM in data set [1] was 7%. The molecule also returned a CC50 at 5 days in data set [2] (setting [3]) of 6390 nM.

Regarding `CCC(C(=O)N[C@@H](Cc1cc(F)cc(F)c1)c1ncccc1-c1ccc(F)c(C(N)=O)c1)n1nc(C(F)F)cc1C(F)F` (single isomer, unassigned) [Example 483D], the inhibition at 2 µM in data set [1] was determined as 19%. This molecule also had a half-maximal cytotoxic concentration (CC50) at 5 days in data set [2] (setting [3]) of 26200 nM.

As for `CNc1ccc(-c2cccnc2[C@H](Cc2cc(F)cc(F)c2)NC(=O)Cn2nc(C(F)F)c3c2C(F)(F)CCC3(F)F)cn1` [Example 287E, (S)-2-(3-(difluoromethyl)-4,4,7,7-tetrafluoro-4,5,6,7-tetrahydro-1H-indazol-1-yl)-N-(2-(3,5-difluorophenyl)-1-(6′-(methylamino)-3,3′-bipyridin-2-yl)ethyl)acetamide], the inhibition at 2 µM in data set [1] turned out to be 98%. In data set [2] (setting [3]), this molecule came in with a CC50 at 5 days of 16000 nM.

Turning to `O=C(Cn1nc(C(F)F)c2c1C(F)(F)C1CC21)N[C@@H](Cc1cc(F)cc(F)c1)c1ncccc1-c1ccc(S(=O)(=O)NC2CCCCC2)cc1` (stereo partly drawn) [Example 98, (S)—N-(1-(3-(4-(N-cyclohexylsulfamoyl)phenyl)-pyridin-2-yl)-2-(3,5-difluorophenyl)ethyl)-2-(3-(difluoromethyl)-5,6-dihydro-4,5-(methano)-6,6-difluoro-cyclopenta[c]pyrazol-1(4H)-yl)acetamide], the inhibition at 2 µM in data set [1] stood at 13%. Also, the CC50 at 5 days in data set [2] (setting [3]) was 18000 nM.

`NC(=O)c1cc(-c2cccnc2[C@H](Cc2cc(F)cc(F)c2)NC(=O)Cn2nc3c(c2C(F)(F)F)CNC3)ccc1F` [Example 200B, (S)-5-(2-(2-(3,5-difluorophenyl)-1-(2-(3-(trifluoromethyl)-5,6-dihydropyrrolo[3,4-c]pyrazol-2(4H)-yl)acetamido)ethyl)pyridin-3-yl)-2-fluorobenzamide]: the inhibition at 2 µM in data set [1] was 0%. The molecule also displayed a half-maximal cytotoxic concentration (CC50) at 5 days in data set [2] (setting [3]) greater than 53200 nM.

`CCOc1ccc(-c2cccnc2[C@H](Cc2cc(F)cc(F)c2)NC(=O)Cn2nc(C(F)F)c3c2C(F)(F)C2CC32)cc1` (stereo partly drawn) [Example 247, 2-(3-(difluoromethyl)-5,5-difluoro-3b,4,4a,5-tetrahydro-1H-cyclopropa[3,4]cyclopenta[1,2-c]pyrazol-1-yl)-N—((S)-2-(3,5-difluorophenyl)-1-(3-(4-ethoxyphenyl)pyridin-2-yl)ethyl)acetamide]: the inhibition at 2 µM in data set [1] turned out to be 39%. This molecule also returned a CC50 at 5 days in data set [2] (setting [3]) of 26300 nM.

For `NC(=O)c1cc(-c2cccnc2[C@H](Cc2cc(F)cc(F)c2)NC(=O)COc2cc[nH]c(=O)c2)ccc1F` [Example 282, (S)-5-(2-(2-(3,5-difluorophenyl)-1-(2-(2-oxo-1,2-dihydropyridin-4-yloxy)acetamido)ethyl)pyridin-3-yl)-2-fluorobenzamide], the inhibition at 2 µM in data set [1] turned out to be 0%. The molecule further registered a CC50 at 5 days in data set [2] (setting [3]) greater than 53200 nM.

Consider `Cc1cc(=O)n(CC(=O)N[C@@H](Cc2cc(F)cc(F)c2)c2ncccc2-c2cccc(C(N)=O)c2)c2ccccc12` [Example 321, (S)-3-(2-(2-(3,5-difluorophenyl)-1-(2-(4-methyl-2-oxoquinolin-1(2H)-yl)acetamido)ethyl)pyridin-3-yl)benzamide], for which the inhibition at 2 µM in data set [1] came to 30%. Further, the CC50 at 5 days in data set [2] (setting [3]) turned out to be 29700 nM.

With `NC(=O)c1cc(-c2cccnc2[C@H](Cc2cc(F)cc(F)c2)NC(=O)Cn2nc(C(F)(F)F)c3c2C(O)CC3)ccc1F` (stereo partly drawn) [Example 391, 5-(2-((1S)-2-(3,5-difluorophenyl)-1-(2-(6-hydroxy-3-(trifluoromethyl)-5,6-dihydrocyclopenta[c]pyrazol-1(4H)-yl)acetamido)ethyl)pyridin-3-yl)-2-fluorobenzamide], in data set [1], the inhibition at 2 µM is 60%. This molecule showed a CC50 at 5 days in data set [2] (setting [3]) of 44800 nM.

As for `NC(=O)c1cc(-c2cccnc2[C@H](Cc2cc(F)cc(F)c2)NC(=O)[C@@H]2C[C@@H](OCc3ccccc3)CN2)ccc1F` [Example 157, (2S,4R)-4-(benzyloxy)-N—((S)-1-(3-(3-carbamoyl-4-fluorophenyl)pyridin-2-yl)-2-(3,5-difluorophenyl)ethyl)pyrrolidine-2-carboxamide], the inhibition at 2 µM in data set [1] is 10%. For the same molecule, it took 38300 nM to reach half-maximal cytotoxicity in data set [2] (setting [3]) (CC50 at 5 days).

In the case of `NC(=O)c1cc(-c2cccnc2[C@H](Cc2cc(F)cc(F)c2)NC(=O)Cn2cc(C(F)(F)F)nc2C2CC2)ccc1F` [Example 88E, (S)-5-(2-(1-(2-(2-cyclopropyl-4-(trifluoromethyl)-1H-imidazol-1-yl)acetamido)-2-(3,5-difluorophenyl)ethyl)pyridin-3-yl)-2-fluorobenzamide], in data set [1], the inhibition at 2 µM turned out to be 44%. The molecule further showed a CC50 at 5 days in data set [2] (setting [3]) greater than 53200 nM.

On to `CC(C)(CC(=O)N[C@@H](Cc1cc(F)cc(F)c1)c1ncccc1-c1ccc(F)c(C(N)=O)c1)n1ccc(C(F)(F)F)n1` (single isomer, unassigned) [Example 478E], for which the inhibition at 2 µM in data set [1] was determined as 0%. The molecule also came in with a CC50 at 5 days in data set [2] (human, CC50 (nM), uninfected MT-4 cells, same protocol as Test A, CellTiter-Glo) of 21500 nM.

For `Cc1ccccc1-c1cccnc1[C@H](Cc1cccc(F)c1)NC(=O)Cc1c[nH]c2ccc(O)cc12` [Example 24, (S)—N-(2-(3-fluorophenyl)-1-(3-o-tolylpyridin-2-yl)ethyl)-2-(5-hydroxy-1H-indol-3-yl)acetamide], the inhibition at 2 µM in data set [1] amounted to 39%. Besides, the CC50 at 5 days in data set [2] (setting [3]) amounted to 24800 nM.

For the molecule `O=C(Cn1nc(C(F)F)c2c1C(F)(F)C1CC21)N[C@@H](Cc1cc(F)cc(F)c1)c1ncccc1-c1ccc2ncccc2c1` (stereo partly drawn) [Example 411, (S)—N-(1-(3-(quinoline-6-yl)-pyridin-2-yl)-2-(3,5-difluorophenyl)ethyl)-2-(3-(difluoromethyl)-5,6-dihydro-4,5-(methano)-6,6-difluoro-cyclopenta[c]pyrazol-1(4H)-yl)acetamide], in data set [1], the inhibition at 2 µM is 53%. The midpoint of cytotoxicity in data set [2] (setting [3]), the CC50 at 5 days, lay at 8980 nM.

Turning to `NC(=O)c1cc(-c2cccnc2[C@H](Cc2cc(F)cc(F)c2)NC(=O)Cn2cc(C3CC3)c(C(F)(F)F)n2)ccc1F` [Example 276, (S)-5-(2-(1-(2-(4-cyclopropyl-3-(trifluoromethyl)-1H-pyrazol-1-yl)acetamido)-2-(3,5-difluorophenyl)ethyl)pyridin-3-yl)-2-fluorobenzamide], the inhibition at 2 µM in data set [1] worked out at 29%. Moreover, in data set [2] (setting [3]), the CC50 at 5 days came to 16900 nM.
